Reference: PubChem BioAssay (NCI)
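GI50 = concentration required for 50% inhibition of growth. TGI is the concentration that stops growth completely.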

Tests used:
Test in all cases: growth of human tumour cells (NCI), 384-well format
SK-MEL-28 melanoma = test system: SK-MEL-28 melanoma
HCT-15 colon = test system: HCT-15 colon
RXF 393 renal = test system: RXF 393 renal
SF-539 CNS = test system: SF-539 CNS
U251 glioblastoma = test system: U251 glioblastoma
CAKI-1 renal = test system: CAKI-1 renal
SNB-19 CNS = test system: SNB-19 CNS
TK-10 renal = test system: TK-10 renal
SW-620 colon = test system: SW-620 colon
MCF7 breast = test system: MCF7 breast
CCRF-CEM leukemia = test system: CCRF-CEM leukemia
MDA-MB-231 breast = test system: MDA-MB-231 breast
LOX IMVI melanoma = test system: LOX IMVI melanoma
UACC-257 melanoma = test system: UACC-257 melanoma
MOLT-4 leukemia = test system: MOLT-4 leukemia
PC-3 prostate = test system: PC-3 prostate
RPMI-8226 leukemia = test system: RPMI-8226 leukemia
HCT-116 colon = test system: HCT-116 colon
NCI-H522 lung = test system: NCI-H522 lung
SF-295 CNS = test system: SF-295 CNS
NCI/ADR-RES ovarian = test system: NCI/ADR-RES ovarian
HL-60(TB) leukemia = test system: HL-60(TB) leukemia
UO-31 renal = test system: UO-31 renal
OVCAR-8 ovarian = test system: OVCAR-8 ovarian
OVCAR-3 ovarian = test system: OVCAR-3 ovarian
SK-MEL-2 melanoma = test system: SK-MEL-2 melanoma
SF-268 CNS = test system: SF-268 CNS
HS 578T breast = test system: HS 578T breast

Q: For `O=C1c2c(O)ccc(O)c2C(=O)c2c(NCCNCCO)ccc(NCCNCCO)c21`, which TGI (SK-MEL-28 melanoma) is on record?
A: 1370 nM

Q: What about the GI50 (HCT-15 colon) of the same molecule?
A: < 10 nM

Q: And the TGI (HCT-15 colon)?
A: 173 nM

Q: And the GI50 (RXF 393 renal)?
A: 61 nM

Q: What about the TGI (RXF 393 renal) of the same molecule?
A: 210 nM

Q: What about the GI50 (SF-539 CNS) of the same molecule?
A: < 10 nM

Q: And the TGI (SF-539 CNS)?
A: 124 nM

Q: What about the GI50 (U251 glioblastoma) of the same molecule?
A: < 10 nM

Q: And the TGI (U251 glioblastoma)?
A: 114 nM

Q: And the GI50 (CAKI-1 renal)?
A: 13.3 nM

Q: What about the TGI (CAKI-1 renal) of the same molecule?
A: 642 nM

Q: And the GI50 (SNB-19 CNS)?
A: 10.5 nM

Q: And the TGI (SNB-19 CNS)?
A: 1120 nM

Q: What about the GI50 (TK-10 renal) of the same molecule?
A: 121 nM

Q: What about the TGI (TK-10 renal) of the same molecule?
A: 358 nM

Q: And the GI50 (SW-620 colon)?
A: < 10 nM

Q: And the TGI (SW-620 colon)?
A: 507 nM

Q: What about the GI50 (MCF7 breast) of the same molecule?
A: < 10 nM

Q: What about the TGI (MCF7 breast) of the same molecule?
A: 1180 nM

Q: What about the GI50 (CCRF-CEM leukemia) of the same molecule?
A: < 10 nM

Q: And the TGI (CCRF-CEM leukemia)?
A: < 10 nM

Q: What about the GI50 (MDA-MB-231 breast) of the same molecule?
A: 18.7 nM

Q: What about the TGI (MDA-MB-231 breast) of the same molecule?
A: 97.9 nM

Q: What about the GI50 (LOX IMVI melanoma) of the same molecule?
A: 13.8 nM

Q: What about the TGI (LOX IMVI melanoma) of the same molecule?
A: 155 nM

Q: What about the GI50 (UACC-257 melanoma) of the same molecule?
A: 1100 nM

Q: What about the TGI (UACC-257 melanoma) of the same molecule?
A: 2370 nM

Q: And the GI50 (MOLT-4 leukemia)?
A: < 10 nM

Q: What about the TGI (MOLT-4 leukemia) of the same molecule?
A: < 10 nM

Q: What about the GI50 (PC-3 prostate) of the same molecule?
A: 135 nM

Q: What about the TGI (PC-3 prostate) of the same molecule?
A: 545 nM

Q: What about the GI50 (RPMI-8226 leukemia) of the same molecule?
A: < 10 nM

Q: And the TGI (RPMI-8226 leukemia)?
A: 37.1 nM

Q: What about the GI50 (HCT-116 colon) of the same molecule?
A: < 10 nM

Q: And the TGI (HCT-116 colon)?
A: 242 nM

Q: What about the GI50 (NCI-H522 lung) of the same molecule?
A: 14.6 nM

Q: And the TGI (NCI-H522 lung)?
A: 58 nM

Q: What about the GI50 (SF-295 CNS) of the same molecule?
A: 10.6 nM

Q: And the TGI (SF-295 CNS)?
A: 44.7 nM

Q: What about the GI50 (NCI/ADR-RES ovarian) of the same molecule?
A: 4580 nM

Q: What about the TGI (NCI/ADR-RES ovarian) of the same molecule?
A: > 100000 nM

Q: And the GI50 (HL-60(TB) leukemia)?
A: < 10 nM

Q: And the TGI (HL-60(TB) leukemia)?
A: < 10 nM

Q: What about the GI50 (UO-31 renal) of the same molecule?
A: 195 nM

Q: What about the TGI (UO-31 renal) of the same molecule?
A: 1650 nM

Q: And the GI50 (OVCAR-8 ovarian)?
A: < 10 nM

Q: What about the TGI (OVCAR-8 ovarian) of the same molecule?
A: 152 nM

Q: What about the GI50 (OVCAR-3 ovarian) of the same molecule?
A: 186 nM

Q: And the TGI (OVCAR-3 ovarian)?
A: 1160 nM

Q: What about the GI50 (SK-MEL-2 melanoma) of the same molecule?
A: 83.9 nM

Q: What about the TGI (SK-MEL-2 melanoma) of the same molecule?
A: 189 nM

Q: And the GI50 (SF-268 CNS)?
A: < 10 nM

Q: And the TGI (SF-268 CNS)?
A: 154 nM

Q: What about the GI50 (HS 578T breast) of the same molecule?
A: < 10 nM

Q: What about the TGI (HS 578T breast) of the same molecule?
A: 181 nM
